Where a name gives a salt, the structure may show the parent alone.

In one data set the test system is Cladosporum herbarum. Nature of the data set: Filter disk test, Cladosporum herbarum. Format: cell-based. The note with it: 3 weeks, +30° C. The protocol: (§1) The inhibition action against fungi, of the products according to the invention, was tested using the "filter disk test" (cf. Table 2). For this purpose, paper filter disks (.phi. 5.5 cm) were soaked in ethanolic solutions containing various amounts of active substance. After the filters had dried under room conditions, they were placed on Petri dishes containing plate-count agar which had been inoculated with a spore suspension. The nutrient medium used was biomalt agar 8° Bg, and the dishes were incubated for 3 weeks at +30° C. Thereafter, the sizes of the inhibition zones (distance of the fungal growth from the edge of the filter, in mm) around the samples were determined.

A further data set has as its system Lentinus lepideus. Nature of the data set: Filter disk test, Lentinus lepideus. It is filed as cell-based. As to conditions: 3 weeks, +30° C. The protocol:
as §1

For another data set, the system named is Paecilomyces varioti. Nature of the data set: Filter disk test, Paecilomyces varioti. Format: cell-based. The note with it: 3 weeks, +30° C. The protocol: as §1
For the next data set, the system named is Poria monticola. Description: Filter disk test, Poria monticola. The note with it: 3 weeks, +30° C. Format: cell-based. The protocol:
as §1

Another data set has as its system Staphilococcus aureaus. Description: Agar diffusion test, Staphilococcus aureaus. Format: cell-based. As to conditions: 0: no inhibition action. The protocol:
(§2) DST agar was inoculated with 1 drop of a Muller-Hinton broth of the test organisms, diluted 1 : 10. After a prediffusion period of 2 hours at 22° C., the paper filters which had been soaked with solutions of active substance of various concentrations were placed on the agar. The inhibition zones (distance of the cloudy area from the edge of the paper filter in mm) were determined after an incubation time of 24 hours.
In general terms: In agar diffusion tests the substance spreads into inoculated agar from a disc or well.

The test system of another data set is Escherichia coli. Nature of the data set: Agar diffusion test, Escherichia coli. As to conditions: 0: no inhibition action. It is filed as cell-based. As for the experimental part:
as §2

The next data set concerns Proteus vulgaris. Description: Agar diffusion test, Proteus vulgaris. It is filed as cell-based. The note with it: 0: no inhibition action. As for the experimental part:
as §2

In a further data set the test system is Coniophora puteana. Description: Wood block test against Coniophora puteana after leaching treatment (DIN 52 176, DIN EN 84). The note with it: lower: highest amount with attack (weight loss>3%); higher: lowest amount without attack; 16 weeks, 22° C. The text has this:
To compare the fungicidal action against Basidiomycetes, small blocks made of pine sapwood (5 cm×2.5 cm×1.5 cm, direction of fiber: 5 cm) were soaked with solutions of graduated concentrations of the active substance DBT-HDO (cf. Example 1) in acetone, based on DIN 52 176.
For comparison reasons, the starting materials di-n-butyltin dichloride and the K salt of N-cyclohexyl-N'-hydroxydiazenium oxide were included in the investigations.
The soaked blocks were kept for 4 weeks in an environmentally-controlled chamber at an air temperature of 20° C. and a relative atmospheric humidity of 65%. They were then subjected to a leaching procedure in accordance with DIN EN 84. […] The effect of the fungi on the individual blocks was determined by calculating the weight losses (based on the dry weights). The limits which were determined in this way and which are expressed by two figures, the lower of which being the highest amount of protective agent (in kg/m^3 of wood) at which an attack still took place (weight loss>3%), and the higher denoting the lowest amount from which an attack no longer took place, are listed in Table 3.

The test system of another data set is Bacillus subtilis. Description: Agar diffusion test, Bacillus subtilis. It is filed as cell-based. The note with it: 0: no inhibition action. The protocol: as §2
The nature of data set [1]: Weight loss (release) on storage, 6 days at 65° C. As to conditions: 6 days 65° C. It is filed as physicochemical. As for the experimental part:
As shown by the comparison above, the amount released into the environment during a storage period of 6 days at 65° C. of, for example, TBT-HDO, is nearly six times higher than in the case of DBT-HDO according to the invention.

A further data set concerns Daphnia. Nature of the data set: EC50 in Daphnia (DIN 38412, Part 12). Format: in vivo. The text has this:
**Determination in accordance with DIN 38412, Part 12.

For the next data set, the system named is Orfes. Nature of the data set: EC50 in Orfes (DIN 38412, Part 15). Format: in vivo. The text has this: *Determination in accordance with DIN 38412, Part 15
The mark [2] stands for this setting: 0.1% active substance in soaking solution.
Where [3] appears, read: 0.3% active substance in soaking solution.
Where [4] appears, read: 0.5% active substance in soaking solution.

As for `CCCC[CH2][Sn]([CH2]CCCC)([O]N(N=O)C1CCCCC1)[O]N(N=O)C1CCCCC1` [DPT-HDO, bis(N-cyclohexyldiazeniumdioxy)di-n-pentyltin], the “inhibition zone (IZ)” value in the data set with Cladosporum herbarum (0.5% content of the solution) is on record as 2-3 mm; in the data set on Cladosporum herbarum (1% content of the solution), 5-7 mm; in the data set on Cladosporum herbarum (2% content of the solution) it was 6-8 mm; with Lentinus lepideus (0.5% content of the solution), above 15 mm; in the data set on Lentinus lepideus (1% content of the solution), above 15 mm; with Lentinus lepideus (2% content of the solution), above 15 mm. Moreover, the “inhibition zone (IZ)” value was 6-8 mm in the data set with Paecilomyces varioti (0.5% content of the solution); 8-10 mm in the data set with Paecilomyces varioti (1% content of the solution); 10-12 mm in the data set with Paecilomyces varioti (2% content of the solution); 6-8 mm in the data set with Poria monticola (0.5% content of the solution); 8-10 mm in the data set with Poria monticola (1% content of the solution); 10-12 mm with Poria monticola (2% content of the solution).

`CCCCCCC[CH2][Sn]([CH2]CCCCCCC)([O]N(N=O)C1CCCCC1)[O]N(N=O)C1CCCCC1` [DOT-HDO, bis(N-cyclohexyldiazeniumdioxy)di-n-octyltin]: the “inhibition zone (IZ)” value in the data set with Cladosporum herbarum (0.5% content of the solution) is listed as 10-12 mm; in the data set on Cladosporum herbarum (1% content of the solution), 12-15 mm; in the data set on Cladosporum herbarum (2% content of the solution) it was above 15 mm; in the data set with Lentinus lepideus (0.5% content of the solution), above 15 mm; with Lentinus lepideus (1% content of the solution), above 15 mm; with Lentinus lepideus (2% content of the solution) it was above 15 mm. Moreover, the “inhibition zone (IZ)” value in the data set on Paecilomyces varioti (0.5% content of the solution) is 5-6 mm; in the data set with Paecilomyces varioti (1% content of the solution), 8-10 mm; in the data set on Paecilomyces varioti (2% content of the solution), 10-12 mm; in the data set on Poria monticola (0.5% content of the solution) it was 5-6 mm; in the data set on Poria monticola (1% content of the solution) it was 8-10 mm; in the data set on Poria monticola (2% content of the solution) it was 8-10 mm.

With `[O-][N+](=NO)C1CCCCC1` [K-HDO, potassium salt of N-cyclohexyl-N'-hydroxydiazenium oxide], the zone of inhibition at 0.1 % strength with Staphilococcus aureaus (24 h, 0.1% active substance in soaking solution) is 8 mm; in the data set on Escherichia coli (Escherichia coli, 24 h, 0.1% active substance in soaking solution), 0 mm; with Proteus vulgaris (Proteus vulgaris, 24 h, 0.1% active substance in soaking solution), 0 mm; in the data set with Bacillus subtilis (Bacillus subtilis, 24 h, 0.1% active substance in soaking solution), 4 mm. Besides, the zone of inhibition at 0.3 % strength with Staphilococcus aureaus (24 h, 0.3% active substance in soaking solution) stood at 14 mm; in the data set with Escherichia coli (Escherichia coli, 24 h, 0.3% active substance in soaking solution), 0 mm; in the data set with Proteus vulgaris (Proteus vulgaris, 24 h, 0.3% active substance in soaking solution) it was 0 mm; in the data set on Bacillus subtilis (Bacillus subtilis, 24 h, 0.3% active substance in soaking solution) it was 4 mm. In addition, the zone of inhibition at 0.5 % strength in the data set on Staphilococcus aureaus (24 h, 0.5% active substance in soaking solution) amounted to 19 mm; in the data set with Escherichia coli (Escherichia coli, 24 h, 0.5% active substance in soaking solution), 0 mm; with Proteus vulgaris (Proteus vulgaris, 24 h, 0.5% active substance in soaking solution), 0 mm; in the data set on Bacillus subtilis (Bacillus subtilis, 24 h, 0.5% active substance in soaking solution), 9 mm. Also, the zone of inhibition at 0.5 % lay in the range of 4 to 6 mm in the data set on Cladosporum herbarum (504 h, 0.5% content of the solution, read-out: inhibition zone (IZ)); 4 to 6 mm in the data set with Lentinus lepideus (Neolentinus lepideus, 504 h, 0.5% content of the solution, read-out: inhibition zone (IZ)); 5 to 7 mm with Paecilomyces varioti (Paecilomyces, 504 h, 0.5% content of the solution, read-out: inhibition zone (IZ)); 2 to 3 mm in the data set on Poria monticola (Poria monticola, 504 h, 0.5% content of the solution, read-out: inhibition zone (IZ)). For the same compound, the zone of inhibition at 1 % was 8 to 10 mm in the data set with Cladosporum herbarum (504 h, 1% content of the solution, read-out: inhibition zone (IZ)); 10 to 12 mm in the data set with Lentinus lepideus (Neolentinus lepideus, 504 h, 1% content of the solution, read-out: inhibition zone (IZ)); 6 to 8 mm with Paecilomyces varioti (Paecilomyces, 504 h, 1% content of the solution, read-out: inhibition zone (IZ)); 6 to 8 mm in the data set with Poria monticola (Poria monticola, 504 h, 1% content of the solution, read-out: inhibition zone (IZ)). Also, the zone of inhibition at 2 % in the data set on Cladosporum herbarum (504 h, 2% content of the solution, read-out: inhibition zone (IZ)) is 10 to 12 mm; with Lentinus lepideus (Neolentinus lepideus, 504 h, 2% content of the solution, read-out: inhibition zone (IZ)), above 15 mm; with Paecilomyces varioti (Paecilomyces, 504 h, 2% content of the solution, read-out: inhibition zone (IZ)), 8 to 10 mm; with Poria monticola (Poria monticola, 504 h, 2% content of the solution, read-out: inhibition zone (IZ)) it was 10 to 12 mm. Also, in the data set on Coniophora puteana, the “Limits against Coniophora puteana after leaching treatment” value was 1.8-3.4 kg of product per m^3 of wood.

As for `CCC[CH2][Sn]([Cl])([Cl])[CH2]CCC` [Di-n-butyltin dichloride], the Growth result in the data set with Lentinus lepideus (1% content of the solution) is “+ +”.

For `CCC[CH2][Sn]([CH2]CCC)([O]N(N=O)C1CCCCC1)[O]N(N=O)C1CCCCC1` [DBT-HDO, bis(N-cyclohexyldiazeniumdioxy)di-n-butyltin], the inhibition zone was determined as 8 mm with Staphilococcus aureaus (setting [2]); 10 mm in the data set with Staphilococcus aureaus (setting [3]); 10 mm in the data set on Staphilococcus aureaus (setting [4]); 0 mm in the data set on Escherichia coli (setting [2]); 2 mm in the data set with Escherichia coli (setting [3]); 3 mm in the data set with Escherichia coli (setting [4]). Besides, the inhibition zone in the data set on Proteus vulgaris (setting [2]) amounted to 12 mm; in the data set with Proteus vulgaris (setting [3]) it was 13 mm; in the data set with Proteus vulgaris (setting [4]) it was 12 mm; in the data set on Bacillus subtilis (setting [2]) it was 6 mm; in the data set with Bacillus subtilis (setting [3]) it was 11 mm; in the data set on Bacillus subtilis (setting [4]), 15 mm. The “inhibition zone (IZ)” value with Cladosporum herbarum (0.5% content of the solution) is 3-5 mm; in the data set with Cladosporum herbarum (1% content of the solution) it was 5-6 mm; with Cladosporum herbarum (2% content of the solution), 8-10 mm; with Lentinus lepideus (0.5% content of the solution), above 15 mm; with Lentinus lepideus (1% content of the solution), above 15 mm; with Lentinus lepideus (2% content of the solution) it was above 15 mm. For the same compound, the “inhibition zone (IZ)” value with Paecilomyces varioti (0.5% content of the solution) is reported as 6-8 mm; in the data set on Paecilomyces varioti (1% content of the solution) it was 8-10 mm; with Paecilomyces varioti (2% content of the solution), 10-12 mm; in the data set on Poria monticola (0.5% content of the solution) it was 6-8 mm; with Poria monticola (1% content of the solution) it was 12-12 mm; in the data set with Poria monticola (2% content of the solution), 12-15 mm. In data set [1], this compound displayed a Weight loss of 2.3%. Moreover, the “EC50 in Daphnia” value with Daphnia was 4.9 mg/l of water. Besides, the “EC50 in Orfes” value in the data set on Orfes is given as 0.18 mg/l of water. Besides, the “Limits against Coniophora puteana after leaching treatment” value in the data set with Coniophora puteana is reported as 0.51-0.88 kg of product per m^3 of wood.

The record behind these values is patent US5149365A, “Diorganotin compounds, and agents which have a bactericidal and fungicidal action and contain these compounds” (Schering Aktiengesellschaft, priority 1988, dated 1992).
